Tested on: Danio rerio embryos
Conditions: 96 h exposure, cyclophosphamide solution 1306 mg L^-1
[1] = materials: maintenance water after 1.5 h contact with the material

Method: Aiming to identify the ability of this material to decrease and/or remove the toxicity of the water samples treated, an ecotoxicity test was carried out resorting to assays with Danio rerio embryos. […] Assays with embryos of D. rerio were performed according to the Organisation for Economic Co-operation and Development (OECD) guideline 236 on Fish Embryo Acute Toxicity (FET) Test (OECD, 2013), with small adaptations.
Zebrafish embryos were exposed for 96 h, at a temperature of 26 ± 1 °C and a 16:8h light/dark photoperiod, and observations were made at each 24 h (i.e., 24, 48, 72, and 96 hours) with the help of a stereomicroscope (Zoom-SMZ 1500, Nikon Corporation).
In an embodiment, besides the mortality endpoint (that included coagulated eggs, arrested development, or lack of heartbeat), the sublethal endpoints concerning the hatching rate, final body length, and malformations (such as tail and skeletal malformations, oedemas, and delayed development) (Lammer et al. 2009; "Is the fish embryo toxicity test (FET) with the zebrafish (Danio rerio) a potential alternative for the fish acute toxicity test?" Comp. Biochem. Physiol. Part - C: Toxicol. Pharmacol. 149 (2):196 - 209) were also evaluated. […] Mortality, hatching rate, and percentage of abnormalities were expressed considering the total number of embryos exposed to the different treatments, while the final body length endpoint was evaluated concerning the number of alive larvae at the end of the assay.

O=P1(N(CCCl)CCCl)NCCCO1 (stereo not drawn) [cyclophosphamide]
final body length of zebrafish larvae (average length) (control 5.4 ± 0.2 cm): 4.4 ± 0.4 cm
malformations [1]: 52%
mortality [1]: 20%
